Like-named read-outs stand apart in the source and are kept apart here. Where a SMILES comes first, the peptide text is derived from it. Bridges are numbered along the chain shown (N, C = ends). [ ]: non-standard residue; d: D form. The star is where a group is joined. Hexanoyl(4S-Me) = CC[C@H](C)CCC(=O)*; d(aIle) = CC[C@H](C)[C@@H](N)C(=O)O; d(aThr) = C[C@@H](O)[C@@H](N)C(=O)O; Hexanoyl(5-Me) = CC(C)CCCC(=O)*; Orn = NCCC[C@H](N)C(=O)O; Dhb = C/C=C(\N)C(=O)O
How the values were obtained:
Format in all cases: cell-based, human
A-549 = test: SRB colorimetric assay of cell growth and viability, A-549; conditions: 48 hours exposure; for GI50: read-out: GI50 A-549; for CC50: read-out: LC50 A-549
SK-MEL-28 = test: SRB colorimetric assay of cell growth and viability, SK-MEL-28; conditions: 48 hours exposure; for CC50: read-out: LC50 MEL-28
HT-29 = test: SRB colorimetric assay of cell growth and viability, HT-29; conditions: 48 hours exposure; for GI50: read-out: GI50 HT-29; for CC50: read-out: LC50 HT-29
LoVo = test: SRB colorimetric assay of cell growth and viability, LoVo; conditions: 48 hours exposure; for CC50: read-out: LC50 LOVO
LoVo-Dox = test: SRB colorimetric assay of cell growth and viability, LoVo-Dox; conditions: 48 hours exposure; for CC50: read-out: LC50 LOVO-DOX
Method in brief: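 After 48 hours continuous exposure to samples spanning 10 to 10^−8 μg/mL, biomass was quantified by sulforhodamine B staining of TCA-fixed cells (OD 490 nm). Cells, 5×10^3 per well in RPMI 1640 10% FBS, had attached 18 hours first; GI, TGI and LC derived from triplicate wells.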

DU-145 = test: SRB colorimetric assay of cell growth and viability, DU-145; conditions: 48 hours exposure
SK-BR-3 = test: SRB colorimetric assay of cell growth and viability, SK-BR-3; conditions: 48 hours exposure
Source text: The finality of this assay is to interrupt the growth of a “in vitro” tumor cell culture by means a continued exhibition of the cells to the sample to be testing.
This form of the assay employs 96 well cell culture microplates of 9 mm diameter (Faircloth, 1988; Mosmann, 1983). Most of the cell lines are obtained from American Type Culture Collection (ATCC) derived from different human cancer types.
Cells are maintained in RPMI 1640 10% FBS, supplemented with 0.1 g/l penicillin and 0.1 g/l streptomycin sulfate and then incubated at 37° C., 5% CO2 and 98% humidity. For the experiments, cells were harvested from subconfluent cultures using trypsin and resuspended in fresh medium before plating.
Cells are seeded in 96 well microtiter plates, at 5×10^3 cells per well in aliquots of 195 μL medium, and they are allowed to attach to the plate surface by growing in drug free medium for 18 hours. Afterward, samples are added in aliquots of 5 μL in a ranging from 10 to 10^−8 μg/mL, dissolved in DMSO:EtOH:PBS (0.5:0.5:99). After 48 hours exposure, the antitumor effect are measured by the SRB methodology: cells are fixed by adding 50 μL of cold 50% (wt/vol) trichloroacetic acid (TCA) and incubating for 60 minutes at 4° C. Plates are washed with deionized water and dried. One hundred μL of SRB solution (0.4% wt/vol in 1% acetic acid) is added to each microtiter well and incubated for 10 minutes at room temperature. Unbound SRB is removed by washing with 1% acetic acid. Plates are air dried and bound stain is solubilized with Tris buffer. Optical densities are read on a automated spectrophotometric plate reader at a single wavelength of 490 nm.
The values for mean+/− SD of data from triplicate wells are calculated. Some parameters for cellular responses can be calculated: GI=growth inhibition, TGI=total growth inhibition (cytostatic effect) and LC=cell killing (cytotoxic effect).

IGROV-1 = test: SRB colorimetric assay of cell growth and viability, IGROV-1; conditions: 48 hours exposure
IGROV-ET = test: SRB colorimetric assay of cell growth and viability, IGROV-ET; conditions: 48 hours exposure; for CC50: read-out: LC50 IGROV-ET
HeLa = test: SRB colorimetric assay of cell growth and viability, HeLa; conditions: 48 hours exposure; for CC50: read-out: LC50 HELA
HeLa-APL = test: SRB colorimetric assay of cell growth and viability, HeLa-APL; conditions: 48 hours exposure; for CC50: read-out: LC50 HELA-APL
K-562 = test: SRB colorimetric assay of cell growth and viability, K-562; conditions: 48 hours exposure; for CC50: read-out: LC50 K-562
PANC-1 = test: SRB colorimetric assay of cell growth and viability, PANC-1; conditions: 48 hours exposure; for CC50: read-out: LC50 PANC-1

Compound: C/C=C1\NC(=O)[C@H](Cc2ccc(O)cc2)NC(=O)[C@@H](C(C)C)NC(=O)[C@@H]([C@@H](C)CC)NC(=O)[C@H](NC(=O)[C@H](NC(=O)[C@H](CCCN)NC(=O)[C@H]2CCCN2C(=O)[C@H](NC(=O)[C@@H](NC(=O)[C@@H](NC(=O)[C@H](NC(=O)CC[C@@H](C)CC)C(C)C)[C@@H](C)O)C(C)C)C(C)C)[C@@H](C)CC)[C@@H](C)OC(=O)[C@H](C(C)C)NC1=O [Compound 78, [Tyr^3, (4S)-MeHex^14]-KF] ({Hexanoyl(4S-Me)}-[dV]TV[dV][dP][Orn][d(aIle)][d(aThr)][d(aIle)][dV]Y[Dhb]V; ester 8-C)
- TGI A-549 (A-549; SRB): 2.23E−06 Molar
- GI50 (A-549; SRB): 1270 nM
- CC50 (A-549; SRB): 3920 nM
- GI50 (SK-MEL-28; SRB): 1120 nM
- TGI MEL-28 (SK-MEL-28; SRB): 2.01E−06 Molar
- CC50 (SK-MEL-28; SRB): 3590 nM
- TGI HT-29 (HT-29; SRB): 1.99E−06 Molar
- GI50 (HT-29; SRB): 1080 nM
- CC50 (HT-29; SRB): 3700 nM
- GI50 (LoVo; SRB): 390 nM
- TGI LOVO (LoVo; SRB): 1.16E−06 Molar
- CC50 (LoVo; SRB): 2710 nM
- GI50 (LoVo-Dox; SRB): 135 nM
- TGI LOVO-DOX (LoVo-Dox; SRB): 2.89E−07 Molar
- CC50 (LoVo-Dox; SRB): 621 nM
- GI50 (DU-145; SRB): 1270 nM
- LC50 (concentration causing 50% net cell kill) (DU-145; SRB): 3760 nM
- TGI DU-145 (DU-145; SRB): 2.18E−06 Molar
- GI50 (SK-BR-3; SRB): 266 nM
- LC50 (SK-BR-3; SRB): 2580 nM
- TGI SK-BR-3 (SK-BR-3; SRB): 1.02E−06 Molar
- GI50 (IGROV-1; SRB): 877 nM
- LC50 (concentration causing 50% net cell killing) (IGROV-1; SRB): 3330 nM
- TGI IGROV (IGROV-1; SRB): 1.71E−06 Molar
- GI50 (IGROV-ET; SRB): 930 nM
- TGI IGROV-ET (IGROV-ET; SRB): 1.79E−06 Molar
- CC50 (IGROV-ET; SRB): 3420 nM
- GI50 (HeLa; SRB): 1160 nM
- TGI HELA (HeLa; SRB): 1.97E−06 Molar
- CC50 (HeLa; SRB): 3360 nM
- GI50 (HeLa-APL; SRB): 964 nM
- TGI HELA-APL (HeLa-APL; SRB): 1.81E−06 Molar
- CC50 (HeLa-APL; SRB): 3420 nM
- GI50 (K-562; SRB): 1650 nM
- TGI K-562 (K-562; SRB): 3.78E−06 Molar
- CC50 (K-562; SRB): 6690 nM
- GI50 (PANC-1; SRB): 2560 nM
- TGI PANC-1 (PANC-1; SRB): 6.69E−06 Molar
- CC50 (PANC-1; SRB): 6690 nM

Compound: [2H]C([2H])([2H])C([2H])(C([2H])([2H])[2H])[C@]([2H])(NC(=O)[C@@H](NC(=O)[C@H](NC(=O)CCCC(C)C)C(C)C)[C@@H](C)O)C(=O)N[C@@H](C(=O)N1CCC[C@@H]1C(=O)N[C@@H](CCCN)C(=O)N[C@@H](C(=O)N[C@H]1C(=O)N[C@H]([C@@H](C)CC)C(=O)N[C@H](C(C)C)C(=O)N[C@@H](Cc2ccccc2)C(=O)N/C(=C\C)C(=O)N[C@@H](C(C)C)C(=O)O[C@@H]1C)[C@@H](C)CC)C(C)C [Compound 100, [L-Val-d8^11]-KF]
- TGI A-549 (A-549; A-549): 1.88E−06 Molar
- GI50 (A-549; A-549): 1880 nM
- CC50 (A-549; A-549): 1880 nM
- GI50 (SK-MEL-28; SRB): 963 nM
- TGI MEL-28 (SK-MEL-28; SRB): 1.46E−06 Molar
- CC50 (SK-MEL-28; MEL-28): 1880 nM
- TGI HT-29 (HT-29; HT-29): 6.50E−07 Molar
- GI50 (HT-29; HT-29): 318 nM
- CC50 (HT-29; HT-29): 1180 nM
- GI50 (LoVo; LOVO): 181 nM
- TGI LOVO (LoVo; LOVO): 6.38E−07 Molar
- CC50 (LoVo; LOVO): 1260 nM
- GI50 (LoVo-Dox; LOVO-DOX): 123 nM
- TGI LOVO-DOX (LoVo-Dox; LOVO-DOX): 6.88E−07 Molar
- CC50 (LoVo-Dox; LOVO-DOX): 1380 nM
- GI50 (DU-145; SRB): 544 nM
- TGI DU-145 (DU-145; SRB): 9.69E−07 Molar
- LC50 (concentration causing 50% net cell kill) (DU-145; DU-145): 1590 nM
- GI50 (SK-BR-3; SRB): 348 nM
- TGI SK-BR-3 (SK-BR-3; SRB): 8.19E−07 Molar
- LC50 (SK-BR-3; SK-BR-3): 1450 nM
- GI50 (IGROV-1; SRB): 781 nM
- TGI IGROV (IGROV-1; SRB): 1.16E−06 Molar
- LC50 (concentration causing 50% net cell killing) (IGROV-1; IGROV): 1730 nM
- GI50 (IGROV-ET; SRB): 399 nM
- TGI IGROV-ET (IGROV-ET; SRB): 7.63E−07 Molar
- CC50 (IGROV-ET; IGROV-ET): 1750 nM
- GI50 (HeLa; HELA): 681 nM
- TGI HELA (HeLa; HELA): 1.15E−06 Molar
- CC50 (HeLa; HELA): 1880 nM
- GI50 (K-562; K-562): 1880 nM
- TGI K-562 (K-562; K-562): 1.88E−06 Molar
- CC50 (K-562; K-562): 1880 nM
- GI50 (PANC-1; PANC-1): 1880 nM
- TGI PANC-1 (PANC-1; PANC-1): 1.88E−06 Molar
- CC50 (PANC-1; PANC-1): 1880 nM

Compound: C/C=C1\NC(=O)[C@H](Cc2ccccc2)NC(=O)[C@@H](C(C)C)NC(=O)[C@@H]([C@@H](C)CC)NC(=O)[C@H](NC(=O)[C@H](NC(=O)[C@H](CCCN)NC(=O)[C@H]2CCCN2C(=O)[C@H](NC(=O)[C@@H](NC(=O)[C@H](CCC(N)=O)NC(=O)[C@H](NC(=O)CCCC(C)C)C(C)C)C(C)C)C(C)C)[C@@H](C)CC)[C@@H](C)OC(=O)[C@H](C(C)C)NC1=O [Compound 119, [Gln^12]-KF] ({Hexanoyl(5-Me)}-[dV]QV[dV][dP][Orn][d(aIle)][d(aThr)][d(aIle)][dV]F[Dhb]V; ester 8-C)
- TGI A-549 (A-549; A-549): 1.99E−06 Molar
- GI50 (A-549; A-549): 1990 nM
- CC50 (A-549; A-549): 1990 nM
- GI50 (SK-MEL-28; MEL-28): 1990 nM
- TGI MEL-28 (SK-MEL-28; MEL-28): 1.99E−06 Molar
- CC50 (SK-MEL-28; MEL-28): 1990 nM
- TGI HT-29 (HT-29; HT-29): 1.35E−06 Molar
- GI50 (HT-29; HT-29): 864 nM
- CC50 (HT-29; HT-29): 1990 nM
- GI50 (LoVo-Dox; LOVO-DOX): 591 nM
- TGI LOVO-DOX (LoVo-Dox; LOVO-DOX): 1.16E−06 Molar
- CC50 (LoVo-Dox; LOVO-DOX): 1990 nM
- GI50 (DU-145; DU-145): 1990 nM
- LC50 (concentration causing 50% net cell kill) (DU-145; DU-145): 1990 nM
- TGI DU-145 (DU-145; DU-145): 1.99E−06 Molar
- GI50 (SK-BR-3; SK-BR-3): 258 nM
- LC50 (SK-BR-3; SK-BR-3): 1560 nM
- TGI SK-BR-3 (SK-BR-3; SK-BR-3): 5.34E−07 Molar
- GI50 (IGROV-1; IGROV): 651 nM
- LC50 (concentration causing 50% net cell killing) (IGROV-1; IGROV): 1740 nM
- TGI IGROV (IGROV-1; IGROV): 1.07E−06 Molar
- GI50 (IGROV-ET; IGROV-ET): 764 nM
- TGI IGROV-ET (IGROV-ET; IGROV-ET): 1.37E−06 Molar
- CC50 (IGROV-ET; IGROV-ET): 1990 nM
- GI50 (HeLa; HELA): 379 nM
- TGI HELA (HeLa; HELA): 6.64E−07 Molar
- CC50 (HeLa; HELA): 1990 nM
- GI50 (HeLa-APL; HELA-APL): 1990 nM
- TGI HELA-APL (HeLa-APL; HELA-APL): 1.99E−06 Molar
- CC50 (HeLa-APL; HELA-APL): 1990 nM
- GI50 (K-562; K-562): 1990 nM
- TGI K-562 (K-562; K-562): 1.99E−06 Molar
- CC50 (K-562; K-562): 1990 nM
- GI50 (PANC-1; PANC-1): 1990 nM
- TGI PANC-1 (PANC-1; PANC-1): 1.99E−06 Molar
- CC50 (PANC-1; PANC-1): 1990 nM
